Like-named read-outs stand apart in the source and are kept apart here.
What was measured:
[1] = biological target: T1, ubiquinol:cytochrome c oxidoreductase (complex III), BH‐SMP (Bos taurus, UniProt P00125+P00157+P13272); assay: dUQH2:cyt c3+ oxidoreductase (complex III) activity in BH‐SMP; format: biochemical, bovine
T1 construct: from tissue; host or cells: bovine heart submitochondrial particles (BH-SMP)
Method: (§1) To measure the ubiquinol:cyt c ^3+ oxidoreductase (complex III) activity, the reduction of 100 μM cyt c ^3+ at 550 nm using 540 nm as reference was monitored in the presence of the artificial substrate decylubiquinol (dUQH2, 75 μM), which was prepared from dUQ by reduction (Müllebner et al., 2010). The dUQH2:cyt c ^3+ oxidoreductase activities of 40 μg protein/ml of LtP‐Mit or 3.2 μg protein/ml of BH‐SMP were measured in 1 ml of buffer containing 250 mM sucrose, 50 mM KH2PO4, 0.2 mM EDTA (pH 7.2), 2 mM KCN, and 4 mM NaN3. Respective EO compounds were added 50 s after starting the time scan, and the reaction was started after 100 s with dUQH2 and was monitored for additional 150 s. The activity of noninhibited dUQH2:cyt c ^3+ oxidoreductase activity was measured in the presence of the vehicle for the respective inhibitor (DMSO). All inhibitor concentrations were tested in triplicate. The reduction rates for cyt c ^3+ were calculated from the time trace of the absorption difference at 550 − 540 nm (ε550–540 nm = 19 mmol^−1 L cm^−1). Reduction rates in the presence of DMSO (maximum amount that was introduced by test compound stocks) were set to 100%, and the remaining activities in the presence of EO compounds were expressed in %. Three replicates were measured for each concentration.

[2] = biological target: NADH:ubiquinone oxidoreductase (complex I), LtP‐Mit (Leishmania tarentolae, UniProt A0A640KJ43+P15576+Q34939); assay: NADH:ubiquinone oxidoreductase (complex I) activity in LtP‐Mit, DCPIP; format: biochemical; conditions: for IC50: read-out: IC50 Complex I LtP‐Mit
NADH:ubiquinone oxidoreductase (complex I), LtP‐Mit, sequence (Q7M3U1 entry or part of it): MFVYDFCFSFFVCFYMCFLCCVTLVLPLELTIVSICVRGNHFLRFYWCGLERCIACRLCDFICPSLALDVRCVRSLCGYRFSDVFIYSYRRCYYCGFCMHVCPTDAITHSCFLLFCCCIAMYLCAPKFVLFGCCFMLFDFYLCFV
NADH:ubiquinone oxidoreductase (complex I), LtP‐Mit, sequence (P15576 whole entry): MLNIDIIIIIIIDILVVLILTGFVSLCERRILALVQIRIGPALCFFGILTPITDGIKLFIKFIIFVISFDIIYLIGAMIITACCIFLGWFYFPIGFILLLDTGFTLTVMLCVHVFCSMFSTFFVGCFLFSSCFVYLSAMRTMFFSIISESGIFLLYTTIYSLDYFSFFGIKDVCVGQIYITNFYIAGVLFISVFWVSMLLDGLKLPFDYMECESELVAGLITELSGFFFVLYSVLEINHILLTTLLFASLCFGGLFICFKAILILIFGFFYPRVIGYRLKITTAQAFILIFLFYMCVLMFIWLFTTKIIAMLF
NADH:ubiquinone oxidoreductase (complex I), LtP‐Mit, sequence (A0A640K8W3 entry or part of it, further chain): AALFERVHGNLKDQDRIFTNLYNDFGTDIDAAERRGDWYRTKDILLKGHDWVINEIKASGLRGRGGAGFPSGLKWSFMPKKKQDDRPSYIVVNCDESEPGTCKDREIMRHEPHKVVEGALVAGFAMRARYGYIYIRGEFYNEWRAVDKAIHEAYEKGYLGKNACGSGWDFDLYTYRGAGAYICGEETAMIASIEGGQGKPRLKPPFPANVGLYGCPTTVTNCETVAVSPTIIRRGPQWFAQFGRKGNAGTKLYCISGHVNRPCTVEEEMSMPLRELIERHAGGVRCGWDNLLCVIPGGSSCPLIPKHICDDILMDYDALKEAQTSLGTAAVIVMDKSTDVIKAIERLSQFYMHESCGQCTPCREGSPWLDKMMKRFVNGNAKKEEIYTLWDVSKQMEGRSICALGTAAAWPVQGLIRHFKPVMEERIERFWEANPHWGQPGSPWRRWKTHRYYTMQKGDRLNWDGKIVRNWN
NADH:ubiquinone oxidoreductase (complex I), LtP‐Mit, sequence (P15583 whole entry, further chain): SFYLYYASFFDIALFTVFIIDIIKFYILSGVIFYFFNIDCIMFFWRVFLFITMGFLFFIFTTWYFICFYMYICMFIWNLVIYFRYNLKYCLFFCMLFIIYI
NADH:ubiquinone oxidoreductase (complex I), LtP‐Mit, sequence (Q34939 entry or part of it): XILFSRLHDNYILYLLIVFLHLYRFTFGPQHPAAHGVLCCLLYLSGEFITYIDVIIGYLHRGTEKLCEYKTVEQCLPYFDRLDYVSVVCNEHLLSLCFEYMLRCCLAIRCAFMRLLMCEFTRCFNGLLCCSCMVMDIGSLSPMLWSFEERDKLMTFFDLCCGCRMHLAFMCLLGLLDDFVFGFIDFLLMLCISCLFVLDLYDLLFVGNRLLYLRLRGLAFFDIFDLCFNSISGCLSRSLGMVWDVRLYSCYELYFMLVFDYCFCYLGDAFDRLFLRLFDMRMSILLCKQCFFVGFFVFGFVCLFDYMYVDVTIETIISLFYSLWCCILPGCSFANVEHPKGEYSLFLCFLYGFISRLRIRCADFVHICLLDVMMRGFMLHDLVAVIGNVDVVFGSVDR
NADH:ubiquinone oxidoreductase (complex I), LtP‐Mit, sequence (A0A640KJ43 entry or part of it): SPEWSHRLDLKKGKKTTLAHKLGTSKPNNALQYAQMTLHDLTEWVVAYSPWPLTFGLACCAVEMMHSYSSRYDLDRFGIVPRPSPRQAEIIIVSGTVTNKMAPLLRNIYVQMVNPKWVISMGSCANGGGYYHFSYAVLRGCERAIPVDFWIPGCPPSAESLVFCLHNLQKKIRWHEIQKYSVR
Method: (§2) NADH:ubiquinone oxidoreductase (complex I) and succinate:ubiquinone oxidoreductase (complex II) activities were determined in 96 well‐plates using DCPIP as the electron acceptor. In each well, 200 μl of premix containing buffer (250 mM sucrose, 20 mM triethanolamine, and 1 mM EDTA, pH 7.4), DCPIP (60 μM), BSA (3.5 mg/ml for complex I and 1 mg/ml for complex II), idebenone (50 μM), and LtP‐Mit (complex I 0.17 μg/ml protein and complex II: 51 μg/ml protein) or BH‐SMP (complexes I and II: 8 μg/ml protein) were added. In addition, in the first wells, 97 μl of premix and 3 μl of EO compounds were added. Then six serial 1:3 dilutions were carried out transferring 100 μl in each step. The reaction was started by adding 50 μl of start‐mix per well, giving final concentrations of KCN (1 mM), for complex I:NADH (300 μM) or complex II:succinate (4 mM). After start of the reaction, images of the plates were recorded with a Canon EOS 300D camera (PLReader software, red–green channel) each 10 min for LtP‐Mit and 3 min for BH‐SMP (20 absorbance measurements). For each EO compound, percentage of inhibition was obtained with respect to controls (set to 100%) treated with maximum volume of vehicle (DMSO) introduced by test compound stocks.

[3] = biological target: T2, cytochrome bc 1 complex purified from Bos taurus (Bos taurus, UniProt P00125+P00157+P13272); assay: dUQH2:cyt c3+ oxidoreductase activity of isolated BH‐bc 1; format: biochemical
T2 construct: from tissue; host or cells: Native complex purified in house from bovine heart submitochondrial particles (Triton X-100, hydroxyapatite)
Method: Cytochrome bc 1 complex was obtained from ScY‐SMP and BH‐SMP following published methodology (Geier, Schägger, Brandt, Colson, & von Jagow, 1992) with minor modifications as described below. SMP were resuspended in 1.1% Triton X‐100 and […] phenylmethylsulfonyl fluoride, pH 7.2, and centrifuged for 1 hr at 100,000 g. The bc 1 complex in the sediment was solubilized with 2.2% Triton X‐100, 600 mM NaCl, 10 mM KH2PO4, and 10 mM EDTA, pH 7.2. After centrifugation at 100,000 g for 1 hr, the supernatant was mixed with 50 ml of hydroxyapatite, equilibrated with 0.5% Triton X‐100, 250 mM NaCl, and 100 mM NaHPO4, pH 7.2. After washing the hydroxyapatite with 50 ml of equilibration buffer ([…], 100 mM NaHPO4, and 250 mM NaCl), the bc 1 complexes from ScY‐SMP and BH‐SMP (ScY‐bc 1 and BH‐bc 1, respectively) were eluted from hydroxyapatite with 250 mM KH2PO4 and 0.25% Triton X‐100, pH 7.2, and stored in liquid nitrogen.
as §1, with “Reduction rates in the presence of DMSO (maximum amount that was introduced by test compound stocks) were set to 100%, and the remaining activities in the presence of EO compounds were expressed in %.” left out, “concentration. […]” for “concentration.”

[4] = biological target: succinate:ubiquinone oxidoreductase (complex II), LtP‐Mit (Leishmania tarentolae, UniProt A0A640KIH4+A0A640KIH8); assay: Succinate:ubiquinone oxidoreductase (complex II) activity in LtP‐Mit, DCPIP; format: biochemical; conditions: for IC50: read-out: IC50 Complex II LtP‐Mit
succinate:ubiquinone oxidoreductase (complex II), LtP‐Mit, sequence (A0A640KIH4 entry or part of it): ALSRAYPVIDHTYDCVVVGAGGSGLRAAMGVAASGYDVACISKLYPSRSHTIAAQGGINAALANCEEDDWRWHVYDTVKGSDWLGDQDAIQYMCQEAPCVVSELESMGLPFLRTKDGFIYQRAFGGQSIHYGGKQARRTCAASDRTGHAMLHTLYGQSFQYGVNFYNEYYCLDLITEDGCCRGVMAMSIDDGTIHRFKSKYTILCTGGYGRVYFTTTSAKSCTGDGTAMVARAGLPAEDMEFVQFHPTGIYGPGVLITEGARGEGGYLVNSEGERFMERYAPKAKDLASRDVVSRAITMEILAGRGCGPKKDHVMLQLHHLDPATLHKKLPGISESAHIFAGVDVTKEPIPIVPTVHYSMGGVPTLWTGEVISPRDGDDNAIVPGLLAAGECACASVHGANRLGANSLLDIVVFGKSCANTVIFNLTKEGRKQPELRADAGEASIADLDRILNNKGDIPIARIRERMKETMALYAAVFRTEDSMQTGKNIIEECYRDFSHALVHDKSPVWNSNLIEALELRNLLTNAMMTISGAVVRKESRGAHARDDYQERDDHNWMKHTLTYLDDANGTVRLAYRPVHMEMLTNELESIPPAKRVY
succinate:ubiquinone oxidoreductase (complex II), LtP‐Mit, sequence (A0A640KIH8 entry or part of it): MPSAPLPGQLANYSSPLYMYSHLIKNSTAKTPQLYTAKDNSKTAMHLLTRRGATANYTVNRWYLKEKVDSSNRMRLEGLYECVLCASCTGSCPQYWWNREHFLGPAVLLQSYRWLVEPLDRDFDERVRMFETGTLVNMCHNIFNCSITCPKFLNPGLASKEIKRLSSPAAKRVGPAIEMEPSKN
Method: as §2

[5] = biological target: T3, succinate:ubiquinone oxidoreductase (complex II), BH‐SMP (Bos taurus, UniProt P31039+P35720+Q3T189+Q95123); assay: Succinate:ubiquinone oxidoreductase (complex II) activity in BH‐SMP, DCPIP; format: biochemical, bovine
T3 construct: from tissue; host or cells: bovine heart submitochondrial particles (BH-SMP)
T3 sequence (P31039 45-665 limits assumed): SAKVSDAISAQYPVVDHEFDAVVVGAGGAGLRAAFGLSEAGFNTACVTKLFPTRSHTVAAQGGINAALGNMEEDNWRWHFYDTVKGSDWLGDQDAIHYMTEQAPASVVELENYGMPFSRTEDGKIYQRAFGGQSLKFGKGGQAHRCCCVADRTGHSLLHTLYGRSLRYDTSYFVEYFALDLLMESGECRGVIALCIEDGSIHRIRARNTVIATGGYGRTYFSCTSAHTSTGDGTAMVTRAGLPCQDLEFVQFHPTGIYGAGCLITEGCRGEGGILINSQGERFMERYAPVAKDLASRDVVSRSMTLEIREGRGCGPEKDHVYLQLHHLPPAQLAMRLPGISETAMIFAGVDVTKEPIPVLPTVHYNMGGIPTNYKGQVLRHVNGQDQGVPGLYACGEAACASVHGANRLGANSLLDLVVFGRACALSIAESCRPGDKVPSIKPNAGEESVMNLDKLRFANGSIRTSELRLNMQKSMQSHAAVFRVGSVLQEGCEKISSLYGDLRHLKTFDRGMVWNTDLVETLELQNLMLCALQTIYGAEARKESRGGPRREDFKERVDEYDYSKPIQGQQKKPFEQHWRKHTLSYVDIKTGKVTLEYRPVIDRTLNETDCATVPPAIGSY
T3 sequence (Q3T189 29-280): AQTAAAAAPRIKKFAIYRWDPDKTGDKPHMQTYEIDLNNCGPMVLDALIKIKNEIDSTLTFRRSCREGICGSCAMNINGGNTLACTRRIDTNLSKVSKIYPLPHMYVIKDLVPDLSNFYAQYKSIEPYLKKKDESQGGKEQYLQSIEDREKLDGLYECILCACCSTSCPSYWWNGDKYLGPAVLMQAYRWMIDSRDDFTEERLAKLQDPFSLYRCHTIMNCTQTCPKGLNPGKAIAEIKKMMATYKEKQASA
T3 sequence (P35720 30-169): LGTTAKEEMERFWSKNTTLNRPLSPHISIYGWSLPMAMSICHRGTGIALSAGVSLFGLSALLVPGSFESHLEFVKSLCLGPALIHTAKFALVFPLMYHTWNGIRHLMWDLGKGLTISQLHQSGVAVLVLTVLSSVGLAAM
T3 sequence (Q95123 56-158): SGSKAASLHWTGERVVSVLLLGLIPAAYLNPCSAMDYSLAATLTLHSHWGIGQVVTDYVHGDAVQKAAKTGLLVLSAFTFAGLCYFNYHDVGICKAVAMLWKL
Method: as §2

[6] = biological target: NADH:ubiquinone oxidoreductase (complex I), BH‐SMP (Bos taurus, UniProt P03887+P17694+P42026); format: biochemical, bovine; conditions: for IC50: read-out: IC50 Complex I BH‐SMP
Method: as §2

[7] = read-out: IC50 Complex III BH‐SMP
[8] = immediate inhibition, five experiments, read-out: IC50 ± SD BH‐bc 1
[9] = read-out: IC50 Complex II BH‐SMP

| SMILES | IC50 [1] [µM] | % of inhibition at highest concentration tested, Complex III BH‐SMP [1] [%] | % of inhibition at highest concentration tested, Complex I LtP‐Mit [2] [%] | IC50 [2] [µM] | IC50 [3] [µM] | % of inhibition at highest concentration tested, Complex II LtP‐Mit [4] [%] | IC50 [4] [µM] | IC50 [5] [µM] | % of inhibition at highest concentration tested, Complex II BH‐SMP [5] [%] | % of inhibition at highest concentration tested, Complex I BH‐SMP [6] [%] | IC50 [6] [µM] | IC50 [1, 7] [µM] | IC50 [3, 8] [µM] | IC50 [5, 9] [µM] |
| --- | --- | --- | --- | --- | --- | --- | --- | --- | --- | --- | --- | --- | --- | --- |
| CC(C)C12C=CC(C)(CC1)OO2 (centres unmarked) [Asc, ascaridole] | > 100 | 17.7 | 1.1 | > 100 | 381 ± 9 | 17.6 | > 100 | > 100 | 21.2 | 5.1 | > 100 | – | – | – |
| Cc1ccc(C(C)C)cc1O [Car, carvacrol] | – | 22.8 | 16.4 | > 100 | – | 8.8 | > 100 | – | 21.5 | 13.3 | > 100 | > 100 | 421 ± 4 | > 100 |
| C=C1CC[C@H]2O[C@]2(C)CC[C@@H]2[C@@H]1CC2(C)C [Caryo, caryophyllene oxide] | – | – | 7.2 | > 100 | – | 12.3 | > 100 | – | 16.3 | 39.7 | > 100 | > 100 | 197 ± 1 | > 100 |
